{"source": "patent US20120041026A1", "about": "“(R)-4-((4-((4-(TETRAHYDROFURAN-3-YLOXY)BENZO[D]ISOXAZOL-3-YLOXY)METHYL)PIPERIDIN-1-YL)METHYL)TETRAHYDRO-2H-PYRAN-4-OL, A PARTIAL AGONIST OF 5-HT4 RECEPTORS” (Pfizer Inc., priority 2010, published 2012)", "key": {"human 5-HT4d [1]": {"target": "T1, human 5-HT4d (Homo sapiens, UniProt Q13639)", "T1 construct": "expressed in transfected cells; host or cells: HEK293", "T1 sequence (Q13639 1-360 isoform Q13639-3)": "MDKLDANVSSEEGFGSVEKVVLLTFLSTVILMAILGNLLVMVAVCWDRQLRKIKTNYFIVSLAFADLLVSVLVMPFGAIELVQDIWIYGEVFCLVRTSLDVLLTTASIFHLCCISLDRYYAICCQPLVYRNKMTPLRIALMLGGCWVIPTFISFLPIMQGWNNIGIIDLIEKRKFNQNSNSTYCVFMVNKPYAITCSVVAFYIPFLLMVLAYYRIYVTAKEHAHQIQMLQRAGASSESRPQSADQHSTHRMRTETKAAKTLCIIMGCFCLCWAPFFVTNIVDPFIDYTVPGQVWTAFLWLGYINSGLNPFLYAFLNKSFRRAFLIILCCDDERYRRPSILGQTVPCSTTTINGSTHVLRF", "assay": "Agonist-induced cAMP elevation in human 5-HT4d transfected HEK293 cells, 96 well format", "assay_type": "cell-based", "details": "normalized to 1,000 nM serotonin; for % IA (intrinsic activity, % agonist effect) RT: RT incubation, plate format not marked", "procedure": "Agonist-induced cAMP elevation in human 5-HT4d transfected HEK293 cells, 96 well format: Human 5-HT4(d) transfected HEK293 cells were established in-house. The cells were grown at 37° C. and 5% CO2 in DMEM supplemented with 10% FCS, 20 mM HEPES (pH 7.4), 200 μg/mL hygromycin B (Gibco), 100 units/mL penicillin and 100 μg/mL streptomycin. The cells were grown to 60-80% confluence. On the previous day before treatment with compounds, dialyzed FCS (Gibco) was substituted for normal and the cells were incubated overnight. […] The cells were harvested with PBS/1 mM EDTA, centrifuged and washed with PBS. At the beginning of the assay, cell pellet was resuspended in DMEM supplemented with 20 mM HEPES, 10 μM pargyline (Sigma) and 1 mM 3-isobutyl-1-methylxanthine (Sigma) at the concentration of 1.6×10^5 cells/mL and left for 15 min at RT or 37° C. […] After incubation for 15 min at RT or 37° C., 1% Triton X-100 was added to stop the reaction (25 μL/well) and the plates were left for 30 min at RT. Homogenous time-resolved fluorescence-based cAMP (Schering) detection was made according to the manufacturer's instruction. […] Data was analyzed based on the ratio of fluorescence intensity of each well at 620 nm and 665 nm followed by cAMP quantification using cAMP standard curve. Enhancement of cAMP production elicited by each compound was normalized to the amount of cAMP produced by 1,000 nM serotonin (Sigma). Intrinsic activity is reported in Table 1, below, as % agonist effect."}, "[2]": {"assay": "Brain Penetration Assay (plasma and brain drug levels by LC/MS/MS)", "details": "rat, 5 mg/kg subcutaneous; for Brain AUC / Plasma AUC: 0.5-4 h post-dose; for Brain:Plasma ratio: ratio of AUCs", "method": "(§1) Blood samples were collected via cardiac puncture after euthanization with CO2 at 0.5, 1, 2, and 4 h post-dose. Samples were placed in EDTA tubes and kept on ice. Whole brain was collected via decapitation. Brain samples were immediately stored in dry ice. Blood samples were spun down to collect plasma. Plasma and brain samples were stored at −20° C. until analysis. LC/MS/MS was used to measure plasma and brain drug levels."}, "[3]": {"system": "THLE-2 (transformed human liver epithelial) cells", "assay": "THLE assay (cell viability by cellular ATP)", "assay_type": "cell-based", "details": "read-out: THLE IC50", "procedure": "THLE assay: The THLE assay is predictive of general cell health and measures cell depletion in a human cell line of hepatic origin. THLE-2 (transformed human liver epithelial) cells were obtained from ATCC(CRL-2706 or CRL-10149) and cultured according to ATCC's recommendation. Media consisted of basal medium (BEGM Bullet Kit, Lonza Cat #CC-3170), supplemented with 10% fetal bovine serum (Sigma Cat #F4135) and 2.5 ng/L hEFG (BD Biosciences Cat #356052) and 700 ng/L phosphoethanolamine (Sigma Cat #p-0503). Cells were cultured in T175 human fibronectin/collagen/bovine serum albumin coated flasks. For each experiment, cells were plated onto 384 well plates (custom order, BD Biosciences Cat #359298) at a cell density of 2.5×10^3/well in a total medium volume of 25 μL/well. Plates were incubated for 24 h at 37° C., 5% CO2. […]\nFollowing the 72 h exposure to test compounds, cell viability in each well was determined by measuring the concentration of cellular ATP using the Lonza Vialight™ Plus Cell Proliferation/Cytoxicity Kit (Lonza cat: LT07-121) according to the manufacturer's protocol. The ATP concentration was determined by reading luminescence using a Wallac Envision plate reader (Perkin Elmer, Waltham, Mass., USA). Percent of viable cells relative to no-drug treated controls was determined for each well. […]"}, "[4]": {"details": "rat, in vivo", "method": "as §1"}, "[5]": {"details": "human, 1 uM, pH 7.4", "method": "(§2) Human Liver Microsome Stability Assay: Human liver microsomes (HLMs) are used in a metabolic stability assay to determine the NADPH-dependent in vitro apparent intrinsic metabolic clearance (CLint,app) of a drug (primarily mediated by P450 metabolism). In the HLM assay, test compounds are incubated with HLMs & an NADPH regenerating system in 100 mM potassium phosphate buffer (pH 7.4). The HLMs used in this assay are prepared as a pool from many individual donors. The concentration of HLMs and test compound are 0.71 mg protein/ml and 1 uM, respectively. The reaction is started by the addition of microsomes and buffer to compound. At 0, 5, 10, 20, 30, and 60 minutes, the sample is crashed with ACN/IS (3 times the incubation volume), spun at 4° C. and 3500 rpm for 10 minutes. A matrix and 60 minute w/o NADPH sample are also incubated for 60 minutes serving as negative and positive controls. The matrix sample contains buffer, microsomes, and NADPH (no compound); where as, the 60 minute w/o NADPH sample contains buffer, microsomes, and compound (no NADPH). After centrifugation, the supernatant is removed from the sample, combined with equal parts of water, and stored in the refrigerator until analysis. Drug levels are quantified by mass spectrometry. Clearance is frequently expressed as an extraction ratio (Er) which is calculated as hepatic clearance/hepatic blood flow (range 0-1)."}, "in vivo": {"assay": "in vivo", "details": "male, Sprague-Dawley, rat, sc, 5 mg/kg", "method": "as §1"}, "[6]": {"assay": "Human Liver Microsome Stability Assay", "details": "HLM 0.71 mg protein/ml, 1 uM compound, NADPH; hepatic clearance/hepatic blood flow (range 0-1)", "method": "as §2"}, "human 5-HT4d [7]": {"target": "T1, human 5-HT4d", "assay": "Agonist-induced cAMP elevation in human 5-HT4d transfected HEK293 cells, 384 well format", "assay_type": "cell-based", "details": "normalized to 1 uM serotonin", "procedure": "The cells were grown to 60-80% confluence. […] Intrinsic activity is reported in Table 1, below, as % agonist effect."}}, "note": "Where two headings read alike, the source gives them in different places. Marks after values point to notes of the source that are not given here.", "data": [{"smiles": "O=C(O)C1(CN2CCC(COc3noc4cccc(OCC(F)(F)F)c34)CC2)CCOCC1", "note": "[B]", "values": [{"measurement": "% IA (intrinsic activity, % agonist effect) 37° C., 96-well format", "setting": "human 5-HT4d [1]", "value": "103^a %"}, {"measurement": "% IA (intrinsic activity, % agonist effect) RT", "setting": "human 5-HT4d [1]", "value": 56.3, "unit": "%"}, {"measurement": "Brain AUC", "setting": "[2]", "value": 160, "unit": "ng·h/g"}, {"measurement": "Plasma AUC", "setting": "[2]", "value": 4090, "unit": "ng·h/mL"}, {"measurement": "Brain:Plasma ratio", "setting": "[2]", "value": 0.039}]}, {"smiles": "OC1(CN2CCC(COc3noc4cccc(O[C@@H]5CCOC5)c34)CC2)CCOCC1", "note": "[Compound X, (R)-4-((4-((4-(tetrahydrofuran-3-yloxy)benzo[d]isoxazol-3-yloxy)methyl)piperidin-1-yl)methyl)tetrahydro-2H-pyran-4-ol]", "values": [{"measurement": "IC50", "setting": "[3]; Homo sapiens, THLE-2, 72 h", "value": "> 300", "unit": "µM"}, {"measurement": "Brain AUC", "setting": "[4]; male, Sprague-Dawley, sc, 5 mg/kg", "value": 1790, "unit": "ng·h/g"}, {"measurement": "brain penetration (in words)", "setting": "[4]", "value": "freely crosses the blood brain barrier"}, {"measurement": "Er (extraction ratio)", "setting": "[5]", "value": 0.62}, {"measurement": "AUC", "setting": "in vivo", "value": 1760, "unit": "ng·h/mL"}]}, {"smiles": "CC(C)COc1cccc2onc(OCC3CCN(CC4(C(=O)O)CCCC4)CC3)c12", "note": "[D]", "values": [{"measurement": "% IA (intrinsic activity, % agonist effect) 37° C., 96-well format", "setting": "human 5-HT4d [1]", "value": "95.0^a %"}, {"measurement": "% IA (intrinsic activity, % agonist effect) RT", "setting": "human 5-HT4d [1]", "value": 36.0, "unit": "%"}, {"measurement": "Er (extraction ratio)", "setting": "[6]", "value": 0.36}]}, {"smiles": "CC(C)COc1cccc2onc(OCC3CCN(CC4(C(=O)O)CCOCC4)CC3)c12", "note": "[F]", "values": [{"measurement": "% IA (intrinsic activity, % agonist effect) 37° C., 96-well format", "setting": "human 5-HT4d [1]", "value": "118^a %"}, {"measurement": "% IA (intrinsic activity, % agonist effect) RT", "setting": "human 5-HT4d [1]", "value": 55.5, "unit": "%"}, {"measurement": "Er (extraction ratio)", "setting": "[6]", "value": 0.28}, {"measurement": "Brain AUC", "setting": "[2]", "value": 319, "unit": "ng·h/g"}, {"measurement": "Plasma AUC", "setting": "[2]", "value": 2950, "unit": "ng·h/mL"}, {"measurement": "Brain:Plasma ratio", "setting": "[2]", "value": 0.108}]}, {"smiles": "O=C(O)C1(CN2CCC(COc3noc4cccc(OCC5(CO)CCCC5)c34)CC2)CCOCC1", "note": "[G]", "values": [{"measurement": "% IA (intrinsic activity, % agonist effect) 37° C., 96-well format", "setting": "human 5-HT4d [1]", "value": "79.0^a %"}, {"measurement": "% IA (intrinsic activity, % agonist effect) RT", "setting": "human 5-HT4d [1]", "value": 33.0, "unit": "%"}, {"measurement": "Er (extraction ratio)", "setting": "[6]", "value": "<0.27"}]}, {"smiles": "OC1(COc2cccc3onc(OCC4CCN(CC5(O)CCOCC5)CC4)c23)CCCC1", "note": "[H]", "values": [{"measurement": "% IA (intrinsic activity, % agonist effect) 37° C., 96-well format", "setting": "human 5-HT4d [1]", "value": 104, "unit": "%"}, {"measurement": "% IA (intrinsic activity, % agonist effect) RT", "setting": "human 5-HT4d [1]", "value": 30.8, "unit": "%"}, {"measurement": "% IA (intrinsic activity, % agonist effect) 37° C., 384-well format", "setting": "human 5-HT4d [7]", "value": 50, "unit": "%"}, {"measurement": "Er (extraction ratio)", "setting": "[6]", "value": 0.83}]}, {"smiles": "CC(C)COc1cccc2onc(OCC3CCN(CC4(O)CCOCC4)CC3)c12", "note": "[J]", "values": [{"measurement": "% IA (intrinsic activity, % agonist effect) RT", "setting": "human 5-HT4d [1]", "value": 39.1, "unit": "%"}, {"measurement": "% IA (intrinsic activity, % agonist effect) 37° C., 384-well format", "setting": "human 5-HT4d [7]", "value": "55^b %"}, {"measurement": "IC50", "setting": "[3]; 72 h exposure, concentration range 300-0.058 μM", "value": 56, "unit": "µM"}, {"measurement": "Er (extraction ratio)", "setting": "[6]", "value": 0.78}]}]}
